Key:
[1] = Stability / complex formation in culture medium and on storage; format: physicochemical; details: COMPOUND I incubated with complete tissue culture medium
Protocol: Five molar equivalents of ferrous ion as FeSO4 in a concentrated water stock was added to COMPOUND I in ethanol which produced a deep red precipitate that was subsequently dissolved in DMSO and characterized by HPLC and mass spectrometry. Fe(COMPOUND I)3 was >95% pure and stable in the complete RPMI-1640 media for at least 5 days.

[2] = animals; cited from earlier work
[3] = tested on: gene expression in MV4-11 cells; assay: RNA sequencing differential expression analysis; format: cell-based
Protocol: Treated MV4-11 cells were subjected to total RNA extraction (as for qRT-PCR analysis) and sequenced at the UCSD genomics core facility. RNA was processed using Illumina TruSeq and single end sequenced for 50-bp reads on the Illumina HiSeq4000. Data were analyzed by the McWeeny lab at Oregon Health and Science University (Portland, Oreg.). FASTQ files were assessed for read base distribution and sequence representation using FASTQC http://www.bioinformatics.babraham.ac.uk/projects/fastqc/. Reads were aligned to HG37 using SubRead v1.5.0-pl keeping uniquely mapped reads. Differential expression genes with less than 50 reads (across all 4 samples) were discarded. Raw data and processed files are available on GEO (https://www.ncbi.nlm.nih.gov/geo/query/acc.cgi?acc=GSE111949) accession number GSE111949.
To gain further insight into the pathways exploited by COMPOUND I to cause cell-cycle arrest and apoptosis, differential expression analysis was performed at both the mRNA and protein levels. MV4-11 cells were treated with either vehicle or 500 nmol/L COMPOUND I for 6 hours, and then gene expression was analyzed by RNA-seq. […] The RNA-seq analysis detected a 2-fold increase in KLF4 and a 4.5-fold increase in CDKN1A expression, which is validated by the qRT-PCR data with MV4-11 cells. The differentially regulated genes were analyzed for enriched pathways or GO (Gene Ontology) terms (FIG. 18A) utilizing the Broad Molecular Signatures database (http://software.broadinstitute.org/gsea/msigdb/index.jsp). As expected, apoptotic and cell-cycle pathways were enriched in the differentially expressed gene set. Unexpectedly, gene expression profiles after COMPOUND I treatment were also enriched in the DNA damage response (DDR) and endoplasmic reticulum (ER) stress/unfolded protein response pathways. […] Gene expression changes detected in MV4-11 cells raised the possibility that COMPOUND I could cause apoptosis by inducing DNA damage and activating cellular stress pathways, and/or by inhibition of expression of the MYC oncogene.

[4] = tested on: MOLM-13; assay: Cytotoxicity study (MTS), 5 days; format: cell-based; details: Homo sapiens, AML
Protocol: (§1) EOL-1, GRANTA-519, Jeko-1, Jurkat, Molm-13, NOMO-1, SKM-1, and SU-DHL-6 were obtained from Leibniz-Institut DSMZ. HL-60, KG-1, Mino, MV4-11, Raji, and THP-1 were obtained from ATCC. HEL92.1.7 were obtained from the European Collection of Authenticated Cell Cultures and Ramos cells were a gift from Dr. M. Andreeff (MD Anderson Cancer Center, Houston, Tex.). All cells were cultured in complete media as per the manufacturer's instructions. Early passage cells were collected and frozen within 1 month of receipt from the manufacturer. All experiments were performed on early passage cells within 6 weeks of thawing. MycoScope Mycoplasma Detection Kit (Genlantis catalog #MY01050) was used to screen for potential contamination every 6 months. Peripheral blood mononuclear cells (PBMC) were isolated from fresh healthy donor blood using Ficoll-Paque PLUS (GE Healthcare, catalog #17-1440-02). For synthesis of COMPOUND I free base, 10-phenanthroline-5,6-dione (1.2 equivalents), acetic acid (22 volumes), 2-methyl-5-fluoroindole-3-carboxaldehyde (1.0 equivalents), and ammonium acetate (15 equivalents) were reacted under medium agitation while heated at 95±5° C. for 3 to 7 hours. The reaction was cooled to between 20° C. and 25° C., filtered, rinsed with acetic acid and ethanol, and dried with N2 purge, followed by a wash with 2:1 ethanol:water at 65° C. for 4 hours, cooling to 20° C. to 25° C., filtration, rinsing with 2:1 ethanol:water and EtOAc, and then dried with N2 purge. The purity by HPLC was 99.5%, and the structural identity was confirmed by FT-IR, ^1HNMR, ^13C NMR, and LC/MS. For Fe(COMPOUND I)3 synthesis, five molar equivalents of ferrous ion FeSO4 in water was added to COMPOUND I dissolved in ethanol. The deep red precipitate produced, Fe(COMPOUND I)3, was collected and dissolved in DMSO and characterized by HPLC and mass spectrometry as >95% pure. CX-5461 (7) was purchased from MedChem Express (catalog #HY-13323).
(§2) Cells were plated and treated with vehicle DMSO or COMPOUND I (10 concentrations) in 96-well plates for 5 days at 37° C. and 5% CO2. Cell viability was measured using CellTiter 96 AQueous one solution (MTS) cell proliferation assay (Promega, catalog #G3581), and IC50 values were calculated using GraphPad Prism 7 software.

[5] = tested on: HEL92.1.7; assay: Cytotoxicity study (MTS), 5 days; format: cell-based; details: Homo sapiens, HEL 92.1.7; AML
Protocol: as §1, §2

[6] = tested on: Jurkat; assay: Cytotoxicity study (MTS), 5 days; format: cell-based; details: Homo sapiens, T-ALL
Protocol: as §1, §2

[7] = tested on: HL-60; assay: Cytotoxicity study (MTS), 5 days; format: cell-based; details: Homo sapiens, AML
Protocol: as §1, §2

[8] = tested on: Nomo-1; assay: Cytotoxicity study (MTS), 5 days; format: cell-based; details: Homo sapiens, AML
Protocol: as §1, §2

[9] = tested on: Ramos; assay: Cytotoxicity study (MTS), 5 days; format: cell-based; details: Homo sapiens, Burkitt's
Protocol: as §1, §2

[10] = tested on: EOL-1; assay: Cytotoxicity study (MTS), 5 days; format: cell-based; details: Homo sapiens, EOL1; AML
Protocol: as §1, §2

[11] = tested on: THP1; assay: Cytotoxicity study (MTS), 5 days; format: cell-based; details: Homo sapiens, THP-1; AML
Protocol: as §1, §2

[12] = tested on: SUDHL-6; assay: Cytotoxicity study (MTS), 5 days; format: cell-based; details: Homo sapiens, SU-DHL-6; DLBCL
Protocol: as §1, §2

[13] = tested on: GRANTA-519; assay: Cytotoxicity study (MTS), 5 days; format: cell-based; details: Homo sapiens, MCL
Protocol: as §1, §2

[14] = tested on: Jeko-1; assay: Cytotoxicity study (MTS), 5 days; format: cell-based; details: Homo sapiens, MCL
Protocol: as §1, §2

[15] = tested on: KG-1; assay: Cytotoxicity study (MTS), 5 days; format: cell-based; details: Homo sapiens, AML
Protocol: as §1, §2

[16] = tested on: Mino; assay: Cytotoxicity study (MTS), 5 days; format: cell-based; details: Homo sapiens, MCL
Protocol: as §1, §2

[17] = tested on: Raji; assay: Cytotoxicity study (MTS), 5 days; format: cell-based; details: Homo sapiens, Burkitt's
Protocol: as §1, §2

Structure (SMILES): Cc1[nH]c2ccc(F)cc2c1-c1nc2c3cccnc3c3ncccc3c2[nH]1 [COMPOUND I, 2-(5-fluoro-2-methyl-1H-indol-3-yl)-1H-imidazo[4,5-f][1,10]phenanthroline]
- extracellular Fe(COMPOUND I)3 formation [1]: no extracellular Fe(COMPOUND I)3 was detected
- myelosuppression [2]: did not produce myelosuppression
- genes differentially regulated (>2-fold change and P<0.05) ([3]; 500 nmol/L, 6 hours): 1,643 genes
- genes downregulated ([3]; 500 nmol/L, 6 hours): 1,227 genes
- genes upregulated ([3]; 500 nmol/L, 6 hours): 416 genes
- increase in BBC3 ([3]; 500 nmol/L, 6 hours): 3.95 fold
- increase in CDKN1A expression ([3]; 500 nmol/L, 6 hours): 4.5 fold
- increase in KLF4 expression ([3]; 500 nmol/L, 6 hours): 2 fold
- increase in PMAIP1 ([3]; 500 nmol/L, 6 hours): 1.38 fold
- KIT expression ([3]; 6-hour treatment): decreased
- MYC expression ([3]; 6 hours): downregulated
- IC50 [4]: 0.14 µM
- IC50 [5]: 1.75 µM
- IC50 [6]: 0.52 µM
- IC50 [7]: 0.46 µM
- IC50 [8]: 1.45 µM
- IC50 [9]: 0.35 µM
- IC50 [10]: 0.3 µM
- IC50 [11]: 0.34 µM
- IC50 [12]: 0.51 µM
- IC50 [13]: 0.082 µM
- IC50 [14]: 0.057 µM
- IC50 [15]: 0.51 µM
- IC50 [16]: 0.23 µM
- IC50 [17]: 0.1 µM

Source: US11149047B2, “Aryl imidazoles for treatment of cancer” (Aptose Biosciences Inc., priority 2017, dated 2021)
